Converted amounts (≈) assume the structure as drawn. Counter-ions that a name gives are not always drawn. Like-named read-outs stand apart in the source and are kept apart here.

The subject of series [1] is completely removed guinea-pig tracheas. Kind of series: Constrictive action of histamine di-hydrochloride on completely removed guinea-pig tracheas (in vitro). Type of series: cell-based. The note with it: for ED50 / IC50: Table I; for ED50 / % inhibition / IC50: histamine di-hydrochloride 5.10^-6 g/ml; for IC50: Cavia porcellus, read-out: ED50 (the source's name). On the procedure: Thirty white guinea-pigs were used, from which the tracheas were removed, after they had been killed by ethereal anaesthesia. The tracheas were placed in a 50 ml bath of Krebs solution, suitably oxygenated and thermoregulated at a temperature of 37° C. The lower end of the trachea was closed while the upper end was connected to a polythene tube connected to a transducer for measuring volume differences connected to a polygraph, according to D. Jamieson's method 1962, Brit. J. Pharmacol. and Chemiotherapy, 19, 286, partially modified. Both the trachea and the polythene tube were filled with Krebs solution. The responses of the tracheas thus prepared to acetylcholine and histamine were investigated before and after the addition of the product to the bath.

The next series relates to rabbits. Kind of series: Mucolytic activity: mucoproduction in rabbits before and after oral treatment. The series is classed as in vivo, rabbit. The note with it: for Mucoproduction (mg/h) M ± SD 4-0 h (before the treatment): baseline before treatment; for mucolytic activity (in words): rabbits, oral. On the procedure:
(b) Mucolytic activity of compound 1, doxophylline and bromohexyne hydrochloride For these tests the method described by Perry, W. F., Boyd, E. M., J. Pharmacol., 1941, 73, 65 and suitably modified by us was used. New Zealand-type, male, white rabbits weighing 2.8-3.5 kg. were used. Pre-operative preparation consisted of treatment with 9 mg/kg i.m. of a non-stupefying central analgesic ([…] local anaesthesia in the tracheal region with xylocaine (0.9 mg/kg - 1% solution). The surgical operation commenced 15-20 minutes after the pharmacological pre-treatment. The trachea was exposed and a hole approximately 5-6 mm in diameter was made in its ventral side. The trachea was then introduced into the lower arm of a three-way polypropylene cannula, which had been cut suitably, longitudinally so as to connect the hole made in the trachea with the aperture of the third arm (vertical) of the cannula, and thus put it into communication with the outside. Thus, the cannula surrounded the outside of the trachea and was fixed "in loco" with sterile surgical silk thread. A polypropylene container was attached to the vertical arm of the cannula for collecting the mucous (capacity approximately 2 ml), and the wound was then sutured. The tracheal mucous was collected for four hours before the oral administration of the substance under test and for four hours after the treatment.

Series [2] concerns bronchospasm by acetylcholine chloride in guinea-pigs. The experiment in a line: Bronchospasm by acetylcholine chloride (0.075 mg/kg i.v.) in guinea-pigs (Konzett and Roesler). Type of series: in vivo, guinea-pig. Particulars: for ED50: Cavia porcellus, iv. On the procedure:
Exp. Path. […] J. Pharmcol. 15, 290. Male guinea-pigs weighing 300-450 g were used under urethane anaesthesia (lg/kg i.p.). The animals were suitably prepared by insertion of a cannula in the jugular vein for intravenous administrations while the trachea was connected to an artificial respiration pump (Palmer) adapted for small animals, which was operated at a frequency of approximately 70 insufflations per minute. The pneumogram was recorded by means of a transducer on a polygraph (Battaglia-Rangoni).

Series [3] is described as follows: General statements on side effects, habituation, toxicity and therapeutic index. Particulars: among compounds (1)-(4).
The nature of a further series: in vivo. Particulars: po. On the procedure: The products were administered in a 0.5% aqueous suspension of carboxymethylcellulose at a concentration of 1 ml/100 g of body weight.
Setting [4] is: legend of FIG. 2, unit inferred, read-out: ED 50.

By % inhibition is commonly meant the change of the read-out against control, counted positive when it falls. For the compound `Cn1c(=O)c2c(ncn2CC2SCC[S+]2[O-])n(C)c1=O` (centres unmarked) [COMPOUND 4, 7-[2'-(1',3'-dithiolanyl)-methyl]-theophylline sulphoxide], the ED50 in series [1] was 2241.8 10^-6 g/ml. Also, the “% inhibition” value is listed as -7.5% in series [1] (concentration 100 x 10^-6 g/ml), -12.5% in series [1] (concentration 200 x 10^-6 g/ml), -20.4% in series [1] (concentration 300 x 10^-6 g/ml) and -27.8% in series [1] (concentration 400 x 10^-6 g/ml).
On to `Cn1c(=O)c2c(ncn2CC2SCCCS2)n(C)c1=O` [COMPOUND 2, 7-[2'-(1',3'-dithianyl)-methyl]-theophylline], for which the IC50 in series [1] was 837 µg/mL (≈ 2680 µM). Moreover, the “% inhibition” value in series [1] (concentration 100 x 10^-6 g/ml) is -12.0%; in series [1] (concentration 200 x 10^-6 g/ml), -18.5%; in series [1] (concentration 250 x 10^-6 g/ml) it was -26.5%; in series [1] (concentration 400 x 10^-6 g/ml), -38.5%.
As for `Cn1c(=O)c2c(ncn2CC2OCCO2)n(C)c1=O` [DOXOPHYLLINE, 7-[2'-(1',3'-dioxolanyl)-methyl]-theophylline, reference compound], the IC50 in series [1] is 175 µg/mL (≈ 657 µM). Also, the “% inhibition” value in series [1] (concentration 40 x 10^-6 g/ml) was 0%; in series [1] (concentration 200 x 10^-6 g/ml) it was -54%; in series [1] (concentration 400 x 10^-6 g/ml) it was -78%; in series [1] (concentration 800 x 10^-6 g/ml), -100%. Further, the “Mucoproduction (mg/h) M ± SD 4-0 h (before the treatment)” value (shortened to “Mucoproduction (mg/h) M ± SD 4-0 h”) in the series with rabbits (group dosed 100 mg/kg os) stood at 29.8 ± 5.80 mg/h. Besides, the “% Variation with respect to its own base” value in the series on rabbits (dose 100 mg/kg os) is recorded as “+7.71%”. In addition, the “Mucoproduction (mg/h) M ± SD 0-4 h (after the treatment)” value (from here on “Mucoproduction (mg/h) M ± SD 0-4 h”) with rabbits (dose 100 mg/kg os) turned out to be 32.10 ± 8.26 mg/h. Moreover, the “mucolytic activity (in words)” value in the series on rabbits is “no mucolytic activity”. Moreover, the ED50 in series [2] (setting [4]) is 2.02 mg/kg. The “% Variation in endobronchial pressure after administration of acetylcholine chloride (0,075 mg/kg i.v.) M ± SE” value (“% Variation … (0,075 mg/kg i.v.) M ± SE” below) in series [2] (dose 0.5 mg/kg i.v.) was determined as 153.8 ± 18.4%; in series [2] (dose 1 mg/kg i.v.), 133.3 ± 14.8%; in series [2] (dose 2 mg/kg i.v.), 88.5 ± 11.3%; in series [2] (dose 4 mg/kg i.v.), 56.4 ± 8.8%. Further, the “% inhibition vs. controls” value in series [2] (dose 0.5 mg/kg i.v.) is on record as -15.2%; in series [2] (dose 1 mg/kg i.v.) it was -26.5%; in series [2] (dose 2 mg/kg i.v.), -51.2%; in series [2] (dose 4 mg/kg i.v.), -68.9%.
The LD50 is the dose expected to kill half of the subjects tested. Turning to `Cn1c(=O)c2c(ncn2CC2SCCS2)n(C)c1=O` [COMPOUND 1, 7-[2'-(1',3'-dithiolanyl)-methyl]-theophylline], in series [1], the IC50 is 126 µg/mL (≈ 423 µM). The “% inhibition” value in series [1] (concentration 50 x 10^-6 g/ml) is listed as -17.2%; in series [1] (concentration 100 x 10^-6 g/ml), -32.5%; in series [1] (concentration 200 x 10^-6 g/ml), -62.5%; in series [1] (concentration 300 x 10^-6 g/ml), -95.0%. Further, the “activity in vitro, ranking among the compounds” value in series [1] (on the basis of the results obtained in vitro) is listed as “the most active”. Besides, the “Mucoproduction (mg/h) M ± SD 4-0 h” value in the series with rabbits (group dosed 10 mg/kg os) was 30.6 ± 9.43 mg/h; with rabbits (group dosed 30 mg/kg os) it was 27.2 ± 5.22 mg/h; in the series with rabbits (group dosed 100 mg/kg os) it was 29.7 ± 4.95 mg/h. Also, the “mucolytic activity compared with bromohexyne hydrochloride” value with rabbits (compound at 100 mg/kg vs bromohexyne hydrochloride at 400 mg/kg) is “more active than bromohexyne hydrochloride at a dose of 400 mg/kg”. Further, the “% Variation with respect to its own base” value with rabbits (dose 10 mg/kg os) is “+13.95%”; in the series with rabbits (dose 30 mg/kg os), “+26.95%”; with rabbits (dose 100 mg/kg os), “+57.27%”. In addition, the “Mucoproduction (mg/h) M ± SD 0-4 h” value in the series with rabbits (dose 10 mg/kg os) was found to be 34.87 ± 10.25 mg/h; in the series with rabbits (dose 30 mg/kg os), 34.53 ± 4.16 mg/h; in the series with rabbits (dose 100 mg/kg os) it was 46.71 ± 8.82 mg/h. Besides, the “mucolytic activity (in words)” value in the series on rabbits is “dose-related mucolytic activity”. Further, the “therapeutic index (in words)” value in series [3] was “most favourable therapeutic index”. Besides, the ED50 in series [2] (Table II, i.v., read-out: ED50 mg/kg i.v.) is 0.99 mg/kg; in series [2] (setting [4]), 0.996 mg/kg. Also, the “% Variation … (0,075 mg/kg i.v.) M ± SE” value in series [2] (dose 0.1 mg/kg i.v.) turned out to be 166.0 ± 22.4%; in series [2] (dose 0.5 mg/kg i.v.), 145.1 ± 18.7%; in series [2] (dose 1 mg/kg i.v.) it was 87.1 ± 15.2%; in series [2] (dose 2 mg/kg i.v.), 51.7 ± 6.5%. Besides, the “% inhibition vs. controls” value in series [2] (dose 0.1 mg/kg i.v.) is reported as -8.5%; in series [2] (dose 0.5 mg/kg i.v.) it was -20.0%; in series [2] (dose 1 mg/kg i.v.), -52.0%; in series [2] (dose 2 mg/kg i.v.), -71.5%. Besides, in series [2] (from Table II), the “antibronchospastic effect relative to aminophylline” value is “approximately five times that of aminophylline”. Further, the “antibronchospastic effect relative to doxophylline” value in series [2] (from Table II) was “approximately twice that of doxophylline”. The results for the LD50 at 480 h in “in vivo” (mouse) and in “in vivo” (rat) were 1510 mg/kg and 1840 mg/kg, respectively.
In the case of `Cn1c(=O)c2c(ncn2CC2SCC[S+]2[O-])n(C)c1=O` (centres unmarked) [COMPOUND 3, 7-[2'-(1',3'-dithiolanyl)-methyl]-theophylline sulphoxide], in series [1], the ED50 is listed as 530.0 10^-6 g/ml. The “% inhibition” value in series [1] (concentration 100 x 10^-6 g/ml) was -14.5%; in series [1] (concentration 200 x 10^-6 g/ml), -21.5%; in series [1] (concentration 300 x 10^-6 g/ml) it was -35.4%; in series [1] (concentration 400 x 10^-6 g/ml), -47.5%.
`CC(=O)N[C@@H](CS)C(=O)O` [N--acetylcysteine, reference compound]: in the series with rabbits (group dosed 400 mg/kg os), the “Mucoproduction (mg/h) M ± SD 4-0 h” value was 27.7 ± 5.50 mg/h. In the series on rabbits (dose 400 mg/kg os), the “% Variation with respect to its own base” value is “+16.21%” and the “Mucoproduction (mg/h) M ± SD 0-4 h” value turned out to be 32.19 ± 3.89 mg/h.
As to `CN(Cc1cc(Br)cc(Br)c1N)C1CCCCC1` [BROMOHEXYNE, bromohexyne hydrochloride, reference compound], the “Mucoproduction (mg/h) M ± SD 4-0 h” value in the series on rabbits (group dosed 400 mg/kg os) is 28.9 ± 7.82 mg/h. In the series on rabbits (dose 400 mg/kg os), the “% Variation with respect to its own base” value was “+34.98%” and the “Mucoproduction (mg/h) M ± SD 0-4 h” value came out at 39.01 ± 4.34 mg/h.
In the case of `Cn1c(=O)c2[nH]cnc2n(C)c1=O` [AMINOPHYLLINE, aminophylline], in series [1], the IC50 was found to be 206 µg/mL (≈ 1140 µM). The “% inhibition” value was -10.9% in series [1] (concentration 100 x 10^-6 g/ml), -18.7% in series [1] (concentration 150 x 10^-6 g/ml), -46.15% in series [1] (concentration 200 x 10^-6 g/ml) and -79.4% in series [1] (concentration 300 x 10^-6 g/ml). The ED50 in series [2] and in series [2] (read-out: ED50 mg/kg i.v.) was 4.97 mg/kg throughout. Further, the “% Variation … (0,075 mg/kg i.v.) M ± SE” value in series [2] (dose 0.5 mg/kg i.v.) is 158.7 ± 24.6%; in series [2] (dose 1 mg/kg i.v.) it was 135.7 ± 21.2%; in series [2] (dose 5 mg/kg i.v.), 117.0 ± 17.4%; in series [2] (dose 10 mg/kg i.v.), 49.9 ± 10.2%. Also, the “% inhibition vs. controls” value in series [2] (dose 0.5 mg/kg i.v.) is -12.5%; in series [2] (dose 1 mg/kg i.v.), -25.2%; in series [2] (dose 5 mg/kg i.v.) it was -35.5%; in series [2] (dose 10 mg/kg i.v.) it was -72.5%.
